# Reference: patent US11963948B1, “2-(4-chlorophenyl)-4,5-bis(4-chlorophenyl)-1H-imidazole as an antimicrobial compound” (KING FAISAL UNIVERSITY, priority 2023, dated 2024)
# Columns and labels:
# Bacillus cereus = assay: Agar plate disc-diffusion, antibacterial activity, Bacillus cereus; assay type: cell-based; conditions: Bacillus cereus (Gram positive), nutrient agar, 37° C., 48 h
# Experimental: (§1) The agar plate disc-diffusion method was applied. […] The discs were then placed onto the surface of agar plates (nutrient agar for bacteria and Sabouraud's dextrose agar for fungi) seeded with the test organism. Each plate contained 15 mL of the agar medium, previously seeded with 0.2 mL of the broth culture of each organism pregrown for 18 hours. The plates were incubated at 37° C. for 48 h, and 72 h for fungi. The inhibition zones were measured in mm. Discs impregnated with DMSO were used as a control, and its inhibition zone was subtracted from the tested compound actual inhibition zone.
# Pseudomonas aeruginosa = assay: Agar plate disc-diffusion, antibacterial activity, Pseudomonas aeruginosa; assay type: cell-based; conditions: Pseudomonas aeruginosa (Gram negative), nutrient agar, 37° C., 48 h
# Experimental: as §1
# [1] = tested on: Chrysosporium keratinophilum; assay: Agar plate disc-diffusion, antifungal activity, Chrysosporium keratinophilum; assay type: cell-based; conditions: Sabouraud's dextrose agar, 37° C., 72 h
# Experimental: as §1
# Staphylococcus aureus = assay: Agar plate disc-diffusion, antibacterial activity, Staphylococcus aureus; assay type: cell-based; conditions: Staphylococcus aureus (Gram positive), nutrient agar, 37° C., 48 h
# Experimental: as §1
# Escherichia coli = assay: Agar plate disc-diffusion, antibacterial activity, Escherichia coli; assay type: cell-based; conditions: Escherichia coli (Gram negative), nutrient agar, 37° C., 48 h
# Experimental: as §1
# Aspergillus flavus = assay: Agar plate disc-diffusion, antifungal activity, Aspergillus flavus; assay type: cell-based; conditions: Sabouraud's dextrose agar, 37° C., 72 h
# Experimental: The agar plate disc-diffusion method was applied. Sterilized filter papers (6 mm in diameter) were wetted with 10 μL of a solution of 2-(4-chlorophenyl)-4,5-bis(4-chlorophenyl)-1H-imidazole (IV) to be tested, containing 10 mg/mL in DMSO, and the discs were allowed to air dry. The discs were then placed onto the surface of agar plates (nutrient agar for bacteria and Sabouraud's dextrose agar for fungi) seeded with the test organism. Each plate contained 15 mL of the agar medium, previously seeded with 0.2 mL of the broth culture of each organism pregrown for 18 hours. The plates were incubated at 37° C. for 48 h, and 72 h for fungi. The inhibition zones were measured in mm. Discs impregnated with DMSO were used as a control, and its inhibition zone was subtracted from the tested compound actual inhibition zone.
# [2] = A = concentration of comp. = 10,000 μL
# [3] = B = concentration of comp. = 30,000 μL
# [4] = C = concentration of comp. = 50,000 μL
# [5] = A = concentration of comp. = 10,000 µg/mL
SMILES,inhibition zone (Bacillus cereus; [2]) [mm],inhibition zone (Bacillus cereus; [3]) [mm],inhibition zone (Bacillus cereus; [4]) [mm],inhibition zone (Pseudomonas aeruginosa; [5]) [mm],inhibition zone (Pseudomonas aeruginosa; [3]) [mm],inhibition zone (Pseudomonas aeruginosa; [4]) [mm],"inhibition zone [1, 2] [mm]","inhibition zone [1, 3] [mm]","inhibition zone [1, 4] [mm]",melting point [°C],inhibition zone (Staphylococcus aureus; [2]) [mm],inhibition zone (Staphylococcus aureus; [3]) [mm],inhibition zone (Staphylococcus aureus; [4]) [mm],inhibition zone (Escherichia coli; [2]) [mm],inhibition zone (Escherichia coli; [3]) [mm],inhibition zone (Escherichia coli; [4]) [mm],inhibition zone (Aspergillus flavus; [2]) [mm],inhibition zone (Aspergillus flavus; [3]) [mm],inhibition zone (Aspergillus flavus; [4]) [mm]
"Clc1ccc(-c2nc(-c3ccc(Cl)cc3)c(-c3ccc(Cl)cc3)[nH]2)cc1 [IV, 2-(4-chlorophenyl)-4,5-bis(4-chlorophenyl)-1H-imidazole]",25,27,40,24,26,43,22,27,40,211 to 212,17,23,34,25,30,48,23,25,33
"O=C(O)c1cn(C2CC2)c2cc(N3CCNCC3)c(F)cc2c1=O [Cip., ciprofloxacin, reference compound]",29,30,42,29,30,53,29,30,53,–,43,44,53,30,39,60,29,30,42
